From ChEMBL document CHEMBL6114980, “Single or double lipid-modified ultra-short antimicrobial peptides for treating infections caused by resistant bacteria” (Eur J Med Chem, 2025) come the findings set out here.

Activity calls are given as the source filed them. The rule behind the calls is not given here. Peptide text beside a SMILES is read from it. * marks the point of attachment. Lauroyl = CCCCCCCCCCCC(=O)*; Octanoyl = CCCCCCCC(=O)*

The MIC is the least concentration at which growth counts as inhibited.

A short description of data set [1]: Acute toxicity in male BALB/c mouse assessed congestion at 100 to 130 mg/kg, ip measured after 7 days by H and E staining based analysis. The class given is organism-based. As to conditions: in vivo, 168 h, dose 100-130 mg/kg, time 7 day.
The subject of data set [2] is Staphylococcus aureus. Description: Antibacterial activity against Staphylococcus aureus assessed as reduction in survival bacterial growth in presence of NaCl measured after 18 to 24 hrs (reference value: 4 microM). The class given is functional. To be noted: time 18-24 hrs.
For data set [3], the system named is Staphylococcus aureus. Description: Antibacterial activity against Staphylococcus aureus assessed as reduction in survival bacterial growth in presence of FeCl3 measured after 18 to 24 hrs (reference value: 4 microM). The class given is functional. To be noted: time 18-24 hrs.
Data set [4] relates to Staphylococcus aureus. Description: Additive antibacterial activity against Staphylococcus aureus 25923 assessed as fractional inhibitory in presence of cephalothin by checker board assay. It is filed as functional.
Data set [5] has as its system Staphylococcus aureus. As to the kind of experiment: Antibacterial activity against Staphylococcus aureus assessed as reduction in survival bacterial growth in presence of KCl measured after 18 to 24 hrs (reference value: 4 microM). It is filed as functional. To be noted: time 18-24 hrs.
For data set [6], the system named is Staphylococcus aureus. Description: Antibacterial activity against Staphylococcus aureus assessed as reduction in survival bacterial growth in presence of ZnCl2 measured after 18 to 24 hrs (reference value: 4 microM). The class given is functional. As to conditions: time 18-24 hrs.
Data set [7] deals with Staphylococcus aureus. As to the kind of experiment: Additive antibacterial activity against methicillin-resistant Staphylococcus aureus 113 assessed as fractional inhibitory in presence of polymyxin B by checker board assay. It is filed as functional.
The subject of data set [8] is Escherichia coli. Description: Antibacterial activity against Escherichia coli assessed as reduction in survival bacterial growth in presence of NaCl measured after 18 to 24 hrs (reference value: 8 microM). It is filed as functional. To be noted: time 18-24 hrs.
Data set [9] relates to Staphylococcus aureus. Description: Antibacterial activity against Staphylococcus aureus assessed as reduction in survival bacterial growth in presence of <= 2 ug/ml trypsin measured after1 hr by absorbance based analysis. It is filed as functional, organism-based. To be noted: time 1.0 hrs.
Data set [10] deals with Cell membrane. As to the kind of experiment: Induction of outer membrane permeabilization in Escherichia coli assessed as increase in fluorescence intensity at 0.5 times MIC measured for 10 mins by fluorescence based NPN uptake assay.
Data set [11] is described as follows: Acute toxicity in male BALB/c mouse assessed increase in interstitial space at 100 to 130 mg/kg, ip measured after 7 days by H and E staining based analysis. It is filed as organism-based. As to conditions: in vivo, 168 h, dose 100-130 mg/kg, time 7 day.
The subject of data set [12] is Escherichia coli. Description: Antibacterial activity against Escherichia coli assessed as reduction in survival bacterial growth in presence <=0.2 ug/ml of trypsin measured after1 hr by absorbance based analysis. The class given is functional, organism-based. As to conditions: time 1.0 hrs.
The test system of data set [13] is Staphylococcus aureus. As to the kind of experiment: Antibacterial activity against Staphylococcus aureus assessed as reduction in survival bacterial growth in presence of MgCl2 measured after 18 to 24 hrs (reference value: 4 microM). The class given is functional. As to conditions: time 18-24 hrs.
The nature of data set [14]: Acute toxicity in male BALB/c mouse assessed effect on edema in spleen at 100 to 130 mg/kg, ip measured after 7 days by H and E staining based analysis. The class given is organism-based. As to conditions: in vivo, 168 h, dose 100-130 mg/kg, time 7 day.
Data set [15] concerns Staphylococcus aureus. As to the kind of experiment: Induction of morphological changes in Staphylococcus aureus assessed as cell adhesion at 2 times MIC measured after 120 mins by SEM analysis. It is filed as functional, organism-based.
Data set [16] can be described thus: Acute toxicity in male BALB/c mouse assessed distorted alveolar morphology at 100 to 130 mg/kg, ip measured after 7 days by H and E staining based analysis. The class given is organism-based. As to conditions: in vivo, 168 h, dose 100-130 mg/kg, time 7 day.
The test system of data set [17] is Escherichia coli. As to the kind of experiment: Antibacterial activity against Escherichia coli 25922 at sub-MIC concentration measured after 15 passages in presence of rifampin. The class given is functional, organism-based.
For data set [18], the system named is Staphylococcus aureus. As to the kind of experiment: Synergistic antibacterial activity against methicillin-resistant Staphylococcus aureus assessed as fractional inhibitory in presence of streptomycin by checker board assay. The class given is functional.
Data set [19] in a line: Acute toxicity in male BALB/c mouse assessed effect on edema in kidney at 100 to 130 mg/kg, ip measured after 7 days by H and E staining based analysis. It is filed as organism-based. As to conditions: in vivo, 168 h, dose 100-130 mg/kg, time 7 day.
Data set [20] can be described thus: Acute toxicity in male BALB/c mouse assessed increase in inflammatory cell infiltration at 100 to 130 mg/kg, ip measured after 7 days by H and E staining based analysis. It is filed as organism-based. As to conditions: in vivo, 168 h, dose 100-130 mg/kg, time 7 day.
Data set [21] deals with Escherichia coli. Description: Antibacterial activity against Escherichia coli assessed as reduction in survival bacterial growth in presence of MgCl2 measured after 18 to 24 hrs (reference value: 8 microM). The class given is functional. To be noted: time 18-24 hrs.
The nature of data set [22]: Acute toxicity in male BALB/c mouse assessed effect on edema in heart at 100 to 130 mg/kg, ip measured after 7 days by H and E staining based analysis. It is filed as organism-based. As to conditions: in vivo, 168 h, dose 100-130 mg/kg, time 7 day.
Data set [23] in a line: Acute toxicity in male BALB/c mouse assessed inflammatory cell infiltration in lung at 100 to 130 mg/kg, ip measured after 7 days by H and E staining based analysis. It is filed as organism-based. To be noted: in vivo, 168 h, dose 100-130 mg/kg, time 7 day.
Data set [24] relates to Staphylococcus aureus. Description: Antibacterial activity against Staphylococcus aureus assessed as reduction in survival bacterial growth in presence of <=0.2 ug/ml trypsin measured after1 hr by absorbance based analysis. It is filed as functional, organism-based. To be noted: time 1.0 hrs.
Data set [25] has as its system Staphylococcus aureus. As to the kind of experiment: Antibacterial activity against Staphylococcus aureus assessed as reduction in survival bacterial growth in presence of NaCl measured after 18 to 24 hrs (reference value: 8 microM). It is filed as functional. To be noted: time 18-24 hrs.
Data set [26] in a line: Acute toxicity in male BALB/c mouse assessed partial hepatocyte necrosis at 100 to 130 mg/kg, ip measured after 7 days by H and E staining based analysis. The class given is organism-based. As to conditions: in vivo, 168 h, dose 100-130 mg/kg, time 7 day.
The subject of data set [27] is Staphylococcus aureus. As to the kind of experiment: Synergistic antibacterial activity against Staphylococcus aureus 25923 assessed as fractional inhibitory in presence of cephalothin by checker board assay. It is filed as functional.
Data set [28] relates to Cell membrane. Description: Induction of cytoplasmic membrane depolarization in Escherichia coli assessed as increase in fluorescence intensity at 0.5 to 2 times MIC measured for 10 mins by DiSC3-5 dye based fluorescence assay.
For data set [29], the system named is Cell membrane. Description: Induction of outer membrane permeabilization in Escherichia coli assessed as increase in fluorescence intensity at 1 times MIC measured for 10 mins by fluorescence based NPN uptake assay.
The test system of data set [30] is Staphylococcus aureus. As to the kind of experiment: Additive antibacterial activity against methicillin-resistant Staphylococcus aureus assessed as fractional inhibitory in presence of streptomycin by checker board assay. It is filed as functional.
The test system of data set [31] is Staphylococcus aureus. Description: Synergistic antibacterial activity against methicillin-resistant Staphylococcus aureus 113 assessed as fractional inhibitory in presence of polymyxin B by checker board assay. It is filed as functional.
Data set [32] relates to Cell membrane. As to the kind of experiment: Induction of cytoplasmic membrane depolarization in Staphylococcus aureus assessed as increase in fluorescence intensity at 0.5 to 4 times MIC measured for 1 mins by DiSC3-5 dye based fluorescence assay.
A short description of data set [33]: Acute toxicity in male BALB/c mouse assessed inflammatory cell infiltration in spleen at 100 to 130 mg/kg, ip measured after 7 days by H and E staining based analysis. It is filed as organism-based. As to conditions: in vivo, 168 h, dose 100-130 mg/kg, time 7 day.
The test system of data set [34] is Escherichia coli. Description: Antibacterial activity against Escherichia coli assessed as reduction in survival bacterial growth in presence <=0.02 ug/ml of trypsin measured after1 hr by absorbance based analysis. It is filed as functional, organism-based. As to conditions: time 1.0 hrs.

On to `CCCCCCCCCCCC(=O)N[C@@H](CCCCN)C(=O)N[C@@H](CCCCN)C(=O)N[C@@H](Cc1c[nH]c2ccccc12)C(=O)N[C@@H](Cc1c[nH]c2ccccc12)C(N)=O` (Lauroyl-KKWW-NH2), for which the Activity result is listed as “Toxic” in [1]; “Toxic” in data set [11]; “Non-toxic” in data set [14]; “Toxic” in [16]; “Non-toxic” in [19]; “Toxic” in data set [20]. Moreover, the Activity entry in data set [22] is listed as “Non-toxic”. Further, the MIC came out at 4 µM with Staphylococcus aureus [2]; 2 µM in the data set with Staphylococcus aureus [3]; 4 µM with Staphylococcus aureus [5]; 4 µM in the data set on Staphylococcus aureus [6]; 8 µM with Escherichia coli [8]; 4 µM in the data set with Staphylococcus aureus [13]. For the same molecule, in the data set on Escherichia coli [21], the minimum inhibitory concentration (MIC) was determined as 8 µM. The “fractional inhibitory concentration index (FICI)” value in the data set with Staphylococcus aureus [4] worked out at 0.562; with Staphylococcus aureus [7] it was 0.625; in the data set with Staphylococcus aureus [18] it was 0.375. Besides, the outcome with Staphylococcus aureus [9], in the data set with Cell membrane [10], in the data set with Escherichia coli [12], with Staphylococcus aureus [15] and in the data set on Escherichia coli [17] was Active.
Consider `CCCCCCCC(=O)NCCCC[C@H](NC(=O)CCCCCCC)C(=O)N[C@@H](CCCCN)C(=O)N[C@@H](CCCCN)C(=O)N[C@@H](Cc1c[nH]c2ccccc12)C(=O)N[C@@H](Cc1c[nH]c2ccccc12)C(N)=O` (Octanoyl-K(Octanoyl)KKWW-NH2), for which the Activity result in data set [23] is listed as “Non-toxic”; in data set [26], “Non-toxic”; in the data set on Cell membrane [28], “Active; Compound Showed Similar Effect As Quality Control Polymyxin B”; in data set [33], “Non-toxic”. Also, the result in the data set with Staphylococcus aureus [24], in the data set on Cell membrane [29], in the data set with Cell membrane [32] and with Escherichia coli [34] was Active. Also, the MIC in the data set with Staphylococcus aureus [25] is 8 µM. Besides, the “fractional inhibitory concentration index (FICI)” value in the data set with Staphylococcus aureus [27] is recorded as 0.5; in the data set with Staphylococcus aureus [30], 0.562; in the data set with Staphylococcus aureus [31], 0.312.
